Assays:
[1] = biological target: T1, His tagged PTPN2 (TC45) protein (Homo sapiens, UniProt P17706); test: Mobility Shift Assay used to determine potency of PTPN2 inhibitors; format: biochemical; conditions: Table 2; read-out: PTPN2 MSA IC50
T1 construct: made in house
T1 sequence (P17706 with tags, fused parts or gaps isoform P17706-2): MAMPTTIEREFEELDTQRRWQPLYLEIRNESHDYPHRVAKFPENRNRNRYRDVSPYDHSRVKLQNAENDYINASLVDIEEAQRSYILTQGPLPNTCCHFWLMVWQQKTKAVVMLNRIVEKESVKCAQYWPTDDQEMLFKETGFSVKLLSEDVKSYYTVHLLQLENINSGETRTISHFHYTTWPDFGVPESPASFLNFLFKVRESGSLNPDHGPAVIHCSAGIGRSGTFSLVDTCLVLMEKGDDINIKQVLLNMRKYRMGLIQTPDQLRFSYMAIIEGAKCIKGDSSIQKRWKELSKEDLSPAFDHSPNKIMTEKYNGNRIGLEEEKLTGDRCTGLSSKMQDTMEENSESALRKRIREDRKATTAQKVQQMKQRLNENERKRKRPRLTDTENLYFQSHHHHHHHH
Experimental: Example 292: Mobility Shift Assay used to determine potency of PTPN2 inhibitors
Compound activity was determined using in house His tagged PTPN2 (TC45) protein (SEQ ID NO: 1) in an in vitro enzymatic reaction. The enzymatic assay used to determine activity was a mobility shift assay using a LabChip EZ Reader by Caliper Life Sciences. The enzymatic reaction was carried out in assay buffer (50 mM HEPES pH 7.5, 1 mM EGTA, 10 mM EDTA, 0.01% Tween® 20, and 2 mM DTT). The compounds were dispensed on a white 384 well ProxiPlate™ (PerkinElmer Catalog#6008289) plate using the Labcyte Echo at varying concentrations (12 point, 1:3 dilution). The enzyme (at 0.5 nM) was incubated with compound for 10 minutes at room temperature. Then the substrate (phosphorylated insulin receptor probe sequence: ((OG488)—{NH—CH2—CH2—O—CH2—CH2—O—CH2—CO)—T—R—D—I—(PY)—E—T—D—Y—Y—R—K—K—NH2) (SEQ ID NO: 2) was added at 2 μM to the plates and incubated for another 10 minutes at room temperature. Finally, a quench solution (water and 4-bromo-3-(2-oxo-2-propoxyethoxy)-5-(3-{[1-(phenylmethanesulfonyl)piperidin-4-yl]amino}phenyl)thiophene-2-carboxylic acid) was added to the plates, which were then run on the EZ Reader (excitation 488 nm, emission 530 nm) to measure % conversion (the amount of phosphorylated substrate which was de-phosphorylated by PTPN2). […] The % inhibition was then used to calculate the IC50 values.

[2] = biological target: T2, His tagged full-length PTP1B protein (Homo sapiens, UniProt P18031); test: Mobility Shift Assay (MSA) used to determine potency of PTP1B inhibitors; format: biochemical; conditions: Table 2
T2 construct: made in house
T2 sequence (P18031 with tags, fused parts or gaps): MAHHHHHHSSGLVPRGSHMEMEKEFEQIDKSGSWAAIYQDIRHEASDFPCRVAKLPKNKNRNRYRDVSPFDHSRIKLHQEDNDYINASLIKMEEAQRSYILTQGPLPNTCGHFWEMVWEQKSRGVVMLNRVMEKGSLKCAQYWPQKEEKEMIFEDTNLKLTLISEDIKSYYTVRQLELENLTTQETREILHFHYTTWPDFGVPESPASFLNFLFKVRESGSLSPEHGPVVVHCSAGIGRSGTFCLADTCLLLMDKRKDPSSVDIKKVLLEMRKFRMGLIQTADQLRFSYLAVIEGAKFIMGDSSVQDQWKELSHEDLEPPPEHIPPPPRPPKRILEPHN
Experimental: The enzymatic assay used to determine activity is a mobility shift assay using a LabChip EZ Reader by Caliper Life Sciences. The enzymatic reaction was carried out in assay buffer (50 mM HEPES pH 7.5, 1 mM EGTA, 10 mM EDTA, 0.01% Tween® 20, and 2 mM DTT). […] The enzyme (at 0.5 nM) was incubated with compound for 10 minutes at room temperature. […] The % inhibition was then used to calculate the IC50 values.

Q: O=C1CN(c2c(O)cc3ccc(C4=CCN(CCC5CC5)C4)cc3c2F)S(=O)(=O)N1 [Compound 244, 5-{7-[1-(2-cyclopropylethyl)-2,5-dihydro-1H-pyrrol-3-yl]-1-fluoro-3-hydroxynaphthalen-2-yl}-1λ^6,2,5-thiadiazolidine-1,1,3-trione] was tested. Which IC50 [1] did it give?
A: 10 to 100 nM

Q: CS(=O)(=O)N1CCC(Nc2ccc3cc(O)c(N4CC(=O)NS4(=O)=O)c(F)c3c2)CC1 [Compound 305, 5-(1-fluoro-3-hydroxy-7-{[1-(methanesulfonyl)piperidin-4-yl]amino}naphthalen-2-yl)-1λ^6,2,5-thiadiazolidine-1,1,3-trione] was tested. Which IC50 [2] did it give?
A: > 100 nM

Q: For Cc1nn(C)cc1S(=O)(=O)N1CC=C(c2ccc3cc(O)c(N4CC(=O)NS4(=O)=O)c(F)c3c2)C1 [Compound 310, 5-{7-[1-(1,3-dimethyl-1H-pyrazole-4-sulfonyl)-2,5-dihydro-1H-pyrrol-3-yl]-1-fluoro-3-hydroxynaphthalen-2-yl}-1λ^6,2,5-thiadiazolidine-1,1,3-trione], which IC50 [2] is on record?
A: 1 to 10 nM

Q: With CCS(=O)(=O)NCCOc1ccc2cc(O)c(N3CC(=O)NS3(=O)=O)c(F)c2c1 [Compound 311, N-(2-{[8-fluoro-6-hydroxy-7-(1,1,4-trioxo-1λ^6,2,5-thiadiazolidin-2-yl)naphthalen-2-yl]oxy}ethyl)ethanesulfonamide] as the compound, how does the IC50 [2] read?
A: 1 to 10 nM

Q: How did the IC50 [2] turn out when O=C1CN(c2c(O)cc3ccc(C4=CCN(S(=O)(=O)c5ccoc5)C4)cc3c2F)S(=O)(=O)N1 [Compound 312, 5-{1-fluoro-7-[1-(furan-3-sulfonyl)-2,5-dihydro-1H-pyrrol-3-yl]-3-hydroxynaphthalen-2-yl}-1λ^6,2,5-thiadiazolidine-1,1,3-trione] was run?
A: < 1 nM

Q: For CC(C)CCS(=O)(=O)N1CC=C(c2ccc3cc(O)c(N4CC(=O)NS4(=O)=O)c(F)c3c2)C1 [Compound 313, 5-{1-fluoro-3-hydroxy-7-[1-(3-methylbutane-1-sulfonyl)-2,5-dihydro-1H-pyrrol-3-yl]naphthalen-2-yl}-1λ^6,2,5-thiadiazolidine-1,1,3-trione], which IC50 [2] is on record?
A: < 1 nM

Q: For O=C1CN(c2c(O)cc3ccc(C4=CCN(S(=O)(=O)c5ccsc5)C4)cc3c2F)S(=O)(=O)N1 [Compound 314, 5-{1-fluoro-3-hydroxy-7-[1-(thiophene-3-sulfonyl)-2,5-dihydro-1H-pyrrol-3-yl]naphthalen-2-yl}-1λ^6,2,5-thiadiazolidine-1,1,3-trione], which IC50 [2] is on record?
A: < 1 nM

Q: With O=C1CN(c2c(O)cc3ccc(C4=CCN(S(=O)(=O)c5ccccc5)C4)cc3c2F)S(=O)(=O)N1 [Compound 315, 5-{7-[1-(benzenesulfonyl)-2,5-dihydro-1H-pyrrol-3-yl]-1-fluoro-3-hydroxynaphthalen-2-yl}-1λ^6,2,5-thiadiazolidine-1,1,3-trione] as the compound, how does the IC50 [2] read?
A: < 1 nM

Q: O=C1CN(c2c(O)cc3ccc(C4=CCN(S(=O)(=O)C5CCC5)C4)cc3c2F)S(=O)(=O)N1 [Compound 316, 5-{7-[1-(cyclobutanesulfonyl)-2,5-dihydro-1H-pyrrol-3-yl]-1-fluoro-3-hydroxynaphthalen-2-yl}-1λ^6,2,5-thiadiazolidine-1,1,3-trione] was tested. Which IC50 [2] did it give?
A: < 1 nM

Q: For N#Cc1c[nH]c(-c2ccc3cc(O)c(N4CC(=O)NS4(=O)=O)c(F)c3c2)n1 [Compound 321, 2-[8-fluoro-6-hydroxy-7-(1,1,4-trioxo-1λ^6,2,5-thiadiazolidin-2-yl)naphthalen-2-yl]-1H-imidazole-4-carbonitrile], which IC50 [2] is on record?
A: 1 to 10 nM

Q: O=C1CN(c2c(O)cc3ccc(OCCCC(F)F)cc3c2F)S(=O)(=O)N1 [Compound 372, 5-[7-(4,4-difluorobutoxy)-1-fluoro-3-hydroxynaphthalen-2-yl]-1λ^6,2,5-thiadiazolidine-1,1,3-trione] was tested. Which IC50 [1] did it give?
A: < 1 nM

Q: How did the IC50 [1] turn out when O=C1CN(c2c(O)cc3ccc(OCCC4COC4)cc3c2F)S(=O)(=O)N1 [Compound 373, 5-{1-fluoro-3-hydroxy-7-[2-(oxetan-3-yl)ethoxy]naphthalen-2-yl}-1λ^6,2,5-thiadiazolidine-1,1,3-trione] was run?
A: 1 to 10 nM

Q: For O=C1CN(c2c(O)cc3ccc(OCCC4(CO)CCC4)cc3c2F)S(=O)(=O)N1 [Compound 374, 5-(1-fluoro-3-hydroxy-7-{2-[1-(hydroxymethyl)cyclobutyl]ethoxy}naphthalen-2-yl)-1λ^6,2,5-thiadiazolidine-1,1,3-trione], which IC50 [1] is on record?
A: < 1 nM

Q: Which IC50 [1] does the source give for O=C1CN(c2c(O)cc3ccc(OCCCC(F)(F)CO)cc3c2F)S(=O)(=O)N1 [Compound 375, 5-{7-[(4,4-difluoro-5-hydroxypentyl)oxy]-1-fluoro-3-hydroxynaphthalen-2-yl}-1λ^6,2,5-thiadiazolidine-1,1,3-trione] here?
A: < 1 nM

Q: For NCC12CC(CCOc3ccc4cc(O)c(N5CC(=O)NS5(=O)=O)c(F)c4c3)(C1)C2 [Compound 376, 5-(7-{2-[3-(aminomethyl)bicyclo[11.1.1]pentan-1-yl]ethoxy}-1-fluoro-3-hydroxynaphthalen-2-yl)-1λ^6,2,5-thiadiazolidine-1,1,3-trione], which IC50 [1] is on record?
A: 1 to 10 nM

Q: With O=C1CN(c2c(O)cc3ccc(OCC45CC(CCO)(C4)C5)cc3c2F)S(=O)(=O)N1 [Compound 377, 5-(1-fluoro-3-hydroxy-7-{[3-(2-hydroxyethyl)bicyclo[1.1.1]pentan-1-yl]methoxy}naphthalen-2-yl)-1λ^6,2,5-thiadiazolidine-1,1,3-trione] as the compound, how does the IC50 [1] read?
A: 1 to 10 nM

Q: With O=C1CN(c2c(O)cc3ccc(OCCC45CC(C4)C5)cc3c2F)S(=O)(=O)N1 [Compound 378, 5-{7-[2-(bicyclo[11.1.1]pentan-1-yl)ethoxy]-1-fluoro-3-hydroxynaphthalen-2-yl}-1λ^6,2,5-thiadiazolidine-1,1,3-trione] as the compound, how does the IC50 [1] read?
A: < 1 nM

Q: Which IC50 [1] does the source give for NCC1(CCOc2ccc3cc(O)c(N4CC(=O)NS4(=O)=O)c(F)c3c2)CCC1 [Compound 379, 5-(7-{2-[1-(aminomethyl)cyclobutyl]ethoxy}-1-fluoro-3-hydroxynaphthalen-2-yl)-1λ^6,2,5-thiadiazolidine-1,1,3-trione] here?
A: 1 to 10 nM

Q: Which IC50 [1] does the source give for CC1(O)CN(CCOc2ccc3cc(O)c(N4CC(=O)NS4(=O)=O)c(F)c3c2)C1 [Compound 380, 5-{1-fluoro-3-hydroxy-7-[2-(3-hydroxy-3-methylazetidin-1-yl)ethoxy]naphthalen-2-yl}-1λ^6,2,5-thiadiazolidine-1,1,3-trione] here?
A: 1 to 10 nM

Q: With O=C1CN(c2c(O)cc3ccc(OCCN4CCC[C@H]4C(F)(F)F)cc3c2F)S(=O)(=O)N1 [Compound 381, 5-(1-fluoro-3-hydroxy-7-{2-[(2S)-2-(trifluoromethyl)pyrrolidin-1-yl]ethoxy}naphthalen-2-yl)-1λ^6,2,5-thiadiazolidine-1,1,3-trione] as the compound, how does the IC50 [1] read?
A: 1 to 10 nM

Q: With COCCN(C)CCOc1ccc2cc(O)c(N3CC(=O)NS3(=O)=O)c(F)c2c1 [Compound 382, 5-(1-fluoro-3-hydroxy-7-{2-[(2-methoxyethyl)(methyl)amino]ethoxy}naphthalen-2-yl)-1λ^6,2,5-thiadiazolidine-1,1,3-trione] as the compound, how does the IC50 [1] read?
A: 10 to 100 nM

Q: O=C1CN(c2c(O)cc3ccc(OCCN4CCC(F)(F)C4)cc3c2F)S(=O)(=O)N1 [Compound 383, 5-{7-[2-(3,3-difluoropyrrolidin-1-yl)ethoxy]-1-fluoro-3-hydroxynaphthalen-2-yl}-1λ^6,2,5-thiadiazolidine-1,1,3-trione] was tested. Which IC50 [1] did it give?
A: 1 to 10 nM

Q: With O=C1CN(c2c(O)cc3ccc(OCCN4Cc5ccccc5C4)cc3c2F)S(=O)(=O)N1 [Compound 384, 5-{7-[2-(1,3-dihydro-2H-isoindol-2-yl)ethoxy]-1-fluoro-3-hydroxynaphthalen-2-yl}-1λ^6,2,5-thiadiazolidine-1,1,3-trione] as the compound, how does the IC50 [1] read?
A: 1 to 10 nM

Source: US20230019236A1, “PROTEIN TYROSINE PHOSPHATASE INHIBITORS AND METHODS OF USE THEREOF” (Calico Life Sciences LLC, priority 2019, published 2023)
